Source: US6936622B2, “6-phenylbenzonaphthyridines” (Altana Pharma AG, priority 2001, dated 2005)
Structures can show the parent of a compound that is named as a salt.

Key:
PDE3 (cGMP-inhibited) = target: T1, PDE3 (cGMP-inhibited) (Homo sapiens, UniProt Q14432); assay: Inhibition of PDE isoenzymes: PDE3; assay type: biochemical; settings: homogenates of human platelets, cAMP or cGMP as substrate; read-out: PDE3 [-log IC50, mol/l] (converted)
T1 construct: investigated in homogenates of human platelets; from tissue; host or cells: homogenates of human platelets
Protocol: (§1) 1. Inhibition of PDE Isoenzymes
(§2) The PDE activity was determined according to Thompson et al. (Adv Cycl Nucl Res 10: 69-92, 1979) with some modifications (Bauer and Schwabe, Naunyn-Schmiedeberg's Arch Pharmacol 311: 193198, 1980). The test samples contained 20 mM Tris (pH 7.4), 5 mM MgCl2, 0.5 μM cAMP or cGMP, [^3H]cAMP or [^3H]cGMP (about 30 000 cpm/sample), the PDE isoenzyme-specific additives described in greater detail below, the indicated concentrations of inhibitor and an aliquot of the enzyme solution in a total sample volume of 200 μl. Dilution series of the compounds according to the invention were prepared in DMSO and further diluted in the samples [1:100 (v/v)], to give the desired end concentration of the inhibitors at a DMSO concentration of 1% (v/v), which for its part has only a minute effect on PDE activity.
(§3) After preincubation at 37° C. for 5 minutes, the reaction was started by addition of the substrate (cAMP or cGMP). The samples were incubated at 37° C. for a further 15 min. The reaction was terminated by addition of 50 μl 0.2 N HCl. After cooling on ice for 10 minutes and addition of 25 μg 5′-nucleotidase (snake venom from Crotalus atrox), the mixture was again incubated at 37° C. for 10 min and the samples were then applied to QAE Sephadex A-25 columns (sample volume 1 ml). The columns were eluted with 2 ml of 30 mM ammonium formate (pH 6.0). The radioactivity of the eluate was measured and corrected by the corresponding blank values (measured in the presence of denatured protein); the blank values were less than 5% of the total radioactivity. In no case did the proportion of hydrolyzed nucleotide exceed 30% of the original substrate concentration.
PDE3 (cGMP-inhibited) was investigated in homogenates of human platelets (see Schudt et al., Biochem Pharmacol 1991: 42, 153-162) using cAMP or cGMP as substrate.
(§4) The IC50 values were determined from the concentration-inhibition curves by nonlinear regression.

PDE4 (cAMP-specific) = assay: Inhibition of PDE isoenzymes: PDE4; assay type: biochemical; settings: cytosol of human polymorphonuclear leukocytes (PMNL), cAMP as substrate, motapizone 1 μM
Protocol: as §1, §2, §3
PDE4 (cAMP-specific) was investigated in the cytosol of human polymorphonuclear leukocytes (PMNL) [isolated from leukocyte concentrates, see Schudt et al., Arch Pharmacol 1991: 344, 682-690] using cAMP as substrate. The PDE3 inhibitor motapizone (1 μM) was used to suppress the PDE3 activity emanating from contaminated platelets.
as §4

T1 sequence (Q14432 whole entry): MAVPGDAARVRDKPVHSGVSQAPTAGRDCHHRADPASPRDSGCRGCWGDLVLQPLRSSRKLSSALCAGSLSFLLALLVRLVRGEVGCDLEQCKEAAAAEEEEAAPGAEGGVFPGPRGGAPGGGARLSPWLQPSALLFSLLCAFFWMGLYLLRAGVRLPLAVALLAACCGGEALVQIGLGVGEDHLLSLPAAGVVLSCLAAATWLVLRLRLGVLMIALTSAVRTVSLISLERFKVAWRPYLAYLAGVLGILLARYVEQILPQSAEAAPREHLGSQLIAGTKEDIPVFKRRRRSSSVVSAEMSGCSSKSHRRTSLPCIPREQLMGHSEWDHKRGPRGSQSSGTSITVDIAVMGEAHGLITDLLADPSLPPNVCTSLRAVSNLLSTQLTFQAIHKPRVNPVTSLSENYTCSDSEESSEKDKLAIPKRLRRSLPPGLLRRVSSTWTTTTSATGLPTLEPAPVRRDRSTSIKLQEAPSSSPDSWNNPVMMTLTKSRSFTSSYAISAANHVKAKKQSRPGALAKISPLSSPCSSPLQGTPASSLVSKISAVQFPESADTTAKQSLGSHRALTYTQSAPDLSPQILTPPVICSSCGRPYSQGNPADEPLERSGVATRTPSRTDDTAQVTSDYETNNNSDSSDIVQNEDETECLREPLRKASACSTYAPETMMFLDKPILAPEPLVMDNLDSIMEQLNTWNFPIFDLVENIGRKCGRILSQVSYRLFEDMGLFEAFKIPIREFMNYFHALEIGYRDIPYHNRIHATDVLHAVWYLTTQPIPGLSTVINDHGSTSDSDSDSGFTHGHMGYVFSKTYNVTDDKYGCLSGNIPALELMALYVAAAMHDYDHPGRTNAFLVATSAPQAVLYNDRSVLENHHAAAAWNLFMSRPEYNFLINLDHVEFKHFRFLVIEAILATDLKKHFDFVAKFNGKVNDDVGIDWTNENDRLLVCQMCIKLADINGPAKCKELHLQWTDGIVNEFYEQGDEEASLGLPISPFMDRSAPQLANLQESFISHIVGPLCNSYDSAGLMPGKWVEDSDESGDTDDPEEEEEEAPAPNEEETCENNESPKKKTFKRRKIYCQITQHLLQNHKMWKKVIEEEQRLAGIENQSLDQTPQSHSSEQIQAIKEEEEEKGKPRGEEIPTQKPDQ

| Structure (SMILES) | IC50 (PDE3 (cGMP-inhibited)) | melting point | PDE4 [-log IC50, mol/l] (PDE4 (cAMP-specific)) |
| --- | --- | --- | --- |
| CCOc1cc2c(cc1OC)C(c1ccc(C(=O)NC(=N)N(C)C)cc1)=NC1CC[N+](C)([O-])CC21 (single isomer, unassigned) [Compound 22, N′-{1-[4-((−)-cis-9-Ethoxy-8-methoxy-2-methyl-2-oxy-1,2,3,4,4a,10b-hexahydro-benzo[c][1,6]naphthyridin-6-yl)-phenyl]-methanoyl}-N,N-dimethyl-guanidine] | 676 nM | 220 to 224 °C | 7.71 |
| COc1cc2c(cc1OC)[C@@H]1CN(C)CC[C@@H]1N=C2c1ccc(C(=O)N=C(N(C)C)N(C)C)cc1.Cl |  | 161 to 166 °C |  |
| CCOc1cc2c(cc1OC)C(c1cccc(C(=O)NC(=N)N(C)C)c1)=NC1CCN(C)CC21 (stereo not drawn) [Compound 10, N′-{1-[3-(cis)-9-Ethoxy-8-methoxy-2-methyl-1,2,3,4,4a,10b-hexahydro-benzo[c][c][1,6]naphthyridin-6-yl)-phenyl]-methanoyl}-N,N-dimethyl-guanidine] | 891 nM | 186 to 188 °C | 8.15 |

Further lines, results first:

| IC50 (PDE3 (cGMP-inhibited)) | melting point | PDE4 [-log IC50, mol/l] (PDE4 (cAMP-specific)) | Structure (SMILES) |
| --- | --- | --- | --- |
| 91.2 nM | 143 to 150 °C | 9.34 | CCOc1cc2c(cc1OC)C(c1ccc(C(=O)NC(=NC)N(C)C)cc1)=N[C@H]1CCN(C)C[C@@H]21.Cl (relative stereo) [Compound 13, N′-{1-[4-((cis)-9-Ethoxy-8-methoxy-2-methyl-1,2,3,4,4a,10b-hexahydro-benzo[c][1,6]naphthyridin-6-yl)-phenyl]-methanoyl}-N,N,N″-trimethyl-guanidine hydrochloride] |
|  | 172 to 179 °C |  | CCOc1cc2c(cc1OC)C(c1ccc(C(=O)NC(=N)N(C)CCO)cc1)=NC1CCN(C)CC21 (stereo not drawn) (as salt: hydrochloride) [Compound 4, N′-{1-[4-((+)-cis-9-Ethoxy-8-methoxy-2-methyl-1,2,3,4,4a,10b-hexahydro[c][1,6]naphthyridin-6-yl)phenyl]methanoyl}-N-(2-hydroxyethyl)-N-methylguanidine dihydrochloride] |
|  | 208 to 218 °C |  | CCOc1cc2c(cc1OC)C(c1ccc(C(=O)NC(=N)N3CCOCC3)cc1)=NC1CCN(C)CC21 (stereo not drawn) (as salt: hydrochloride) [Compound 1, 4-[(+)-cis-9-Ethoxy-8-methoxy-2-methyl-1,2,3,4,4a,10b-hexahydro[c][1,6]naphthyridin-yl)-N-(1-imino-1-morpholin-4-ylmethyl)]benzamide dihydrochloride] |
| 550 nM | 145 to 152 °C | 8.41 | CCOc1cc2c(cc1OC)C(c1ccc(C(=O)NC(=N)N3CCCC3)cc1)=N[C@H]1CCN(C)C[C@@H]21 (relative stereo) [Compound 11, 4-((cis)-9-Ethoxy-8-methoxy-2-methyl-1,2,3,4,4a,10b-hexahydro-benzo[c][1,6]naphthyridin-6-yl)-N-(1-imino-1-pyrrolidin-1-yl-methyl)-benzamide] |
